Source: US10787442B2, “Modulators of indoleamine 2,3-dioxygenase” (GLAXOSMITHKLINE INTELLECTUAL PROPERTY DEVELOPMENT LIMITED, priority 2016, dated 2020)

Tested on: human epithelial HeLa cells
Assay: HeLa cytotoxicity assay (CellTiter-Glo)
Type: cell-based
Conditions: cytotoxicity in stimulated HeLa cells, recorded as pCC50
Experimental: Compounds of the present invention were tested via high-throughput cellular assays utilizing detection of kynurenine via mass spectrometry and cytotoxicity as end-points. […] Compounds with IDO1 inhibitory properties decreased the amount of kynurenine produced by the cells via the tryptophan catabolic pathway. Cellular toxicity due to the effect of compound treatment was measured using CellTiter-Glo® reagent (CTG) (Promega Corporation, Madison, Wis.), which is based on luminescent detection of ATP, an indicator of metabolically active cells.
In preparation for the assays, test compounds were serially diluted 3-fold in DMSO from a typical top concentration of 1 mM or 5 mM and plated at 0.5 μL in 384-well, polystyrene, clear bottom, tissue culture treated plates with lids (Greiner Bio-One, Kremsmünster, Austria) to generate 11-point dose response curves. Low control wells (0% kynurenine or 100% cytotoxicity) contained either 0.5 μL of DMSO in the presence of unstimulated (−IFN-γ) HeLa cells for the mass spectrometry assay or 0.5 μL of DMSO in the absence of cells for the cytotoxicity assay, and high control wells (100% kynurenine or 0% cytotoxicity) contained 0.5 μL of DMSO in the presence of stimulated (+IFN-γ) HeLa cells for both the mass spectrometry and cytotoxicity assays.
Frozen stocks of HeLa cells were washed and recovered in DMEM high glucose medium with HEPES (Thermo Fisher Scientific, Inc., Waltham, Mass.) supplemented with 10% v/v certified fetal bovine serum (FBS) (Thermo Fisher Scientific, Inc., Waltham, Mass.), and 1× penicillin-streptomycin antibiotic solution (Thermo Fisher Scientific, Inc., Waltham, Mass.). The cells were diluted to 100,000 cells/mL in the supplemented DMEM medium. 50 μL of either the cell suspension, for the mass spectrometry assay, or medium alone, for the cytotoxicity assay, were added to the low control wells, on the previously prepared 384-well compound plates, resulting in 5,000 cells/well or 0 cells/well respectively. IFN-γ was added to the remaining cell suspension at a final concentration of 10 nM, and 50 μL of the stimulated cells were added to all remaining wells on the 384-well compound plates. The plates, with lids, were then placed in a 37° C., 5% CO2 humidified incubator for 2 days.
Following incubation, the 384-well plates were removed from the incubator and allowed to equilibrate to room temperature for 30 minutes. For the cytotoxicity assay, CellTiter-Glo® was prepared according to the manufacturer's instructions, and 10 μL were added to each plate well. After a twenty minute incubation at room temperature, luminescence was read on an EnVision® Multilabel Reader (PerkinElmer Inc., Waltham, Mass.). For the mass spectrometry assay, 10 μL of supernatant from each well of the compound-treated plates were added to 40 μL of acetonitrile, containing 10 μM of an internal standard for normalization, in 384-well, polypropylene, V-bottom plates (Greiner Bio-One, Kremsmünster, Austria) to extract the organic analytes. Following centrifugation at 2000 rpm for 10 minutes, 10 μL from each well of the acetonitrile extraction plates were added to 90 μL of sterile, distilled H2O in 384-well, polypropylene, V-bottom plates for analysis of kynurenine and the internal standard on the RapidFire 300 (Agilent Technologies, Santa Clara, Calif.) and 4000 QTRAP MS (SCIEX, Framingham, Mass.). MS data were integrated using Agilent Technologies' RapidFire Integrator software, and data were normalized for analysis as a ratio of kynurenine to the internal standard.

SMILES: CC(C)CN(c1ncc([C@H](C)CC(=O)O)cc1Nc1ccc(Cl)cn1)C1CCOCC1 [Example 6, (R)-3-(5-((5-chloropyridin-2-yl)amino)-6-(isobutyl(tetrahydro-2H-pyran-4-yl)amino)pyridin-3-yl)butanoic acid]
- HELA_IDO1_TOX_PXC50: <5
